Measured values from a melting point compilation (Tetko et al.; mined from patent text by program, amines drawn as free bases though some values may be those of a salt).

Row | SMILES | melting point [°C]
1 | Cc1cc(Nc2ccnc(Nc3ccc(C(=O)N(C)C4CCCN(CCCC(F)(F)F)C4)cc3)n2)ccc1F (centres undefined) | 100 to 110
2 | Cc1cc(Oc2cc(Cl)ccc2[N+](=O)[O-])n[nH]1 | 87 to 90
3 | COC(=O)c1c(CC#N)c(-c2ccc3c(c2)OCO3)c2c3c(ccc2c1C)OCO3 | 215 to 217
4 | CS(=O)(=O)c1nccc(-c2c(-c3ccc(F)cc3)nc3sccn23)n1 | 197 to 198
5 | CCOC(=O)c1ccc(/C=C(\C)c2cc3c(s2)C(C)(C)CCC3(C)C)nc1 | 83 to 84
6 | CCNC(=O)NSC(=S)N(C)C | 173 to 175
7 | Cc1nc(N2CCN(Cc3ccc(F)cc3)C2=O)sc1C(N)=O | 201 to 203
8 | Cc1ccc(S(=O)(=O)N(C)c2ccc(O)cc2)cc1[N+](=O)[O-] | 173 to 174
9 | CCOC(=O)C1=C(N)NC2=C(C(=O)CCC2)C1c1ccccc1C#N (centres undefined) | 165
10 | COc1ccc(C(=O)N2c3ccccc3C(N3CCSc4ccccc43)CC2C)cc1OC (centres undefined) | 113 to 114
11 | COCc1[nH]c(=O)[nH]c1C(=O)c1ccc(OC)cc1 | 211 to 212
12 | CCOC(=O)c1cc(=O)c(C(=O)c2ccccc2)co1 | 84 to 86
13 | COC(=O)c1c(C)c(-c2cc(OC)c(Cl)cc2F)nn1C | 135 to 137
14 | CCOC(=O)C1=C(COCC#CC(O)c2ccccc2)NC(C)=C(C(=O)OC)C1c1cccc(Cl)c1Cl (centres undefined) | 160 to 164
15 | C/C=C/C[C@@H](C)[C@@H](O)[C@H](NC)C(=O)O | 228 to 233
16 | CC(=O)OCC1c2ccccc2-c2c1c1ccccc1c1ccccc21 (centres undefined) | 135 to 136
17 | COc1ccc(C(=CC(=O)N2CCOCC2)c2ccc(O)cc2)cc1OC | 105 to 120
18 | CCCNC(=S)Nc1ccnc(CCCCCN2C(=O)c3ccccc3C2=O)n1 | 146 to 149
19 | C=CCC[Si](c1ccccc1)(c1ccccc1)C1SCCCS1 | 47 to 49
20 | O=C(NO)c1ccc(CNC(=O)c2[nH]c(-c3cccs3)cc2-c2ccc(F)cc2)cn1 | 189 to 191
21 | Cc1ccc2c(-c3ccc(F)cc3)nc(=O)n(C(C)C)c2c1 | 172 to 174
22 | COC(=O)Cc1ccc(CNC(=O)C2Cc3ccccc3N2S(=O)(=O)c2ccc(-c3ccc(F)cc3Cl)cc2)cc1 (centres undefined) | 70
23 | CCOC(=O)C(C)C(O)(c1ccc(OC)cc1)c1ccc(OC)cc1 (centres undefined) | 67 to 69
24 | CC(=O)OC1CSC(Oc2ccnc(Br)c2)C(OC(C)=O)C1OC(C)=O (centres undefined) | 162
25 | CCOC(=O)c1cnc2snc(C)c2c1NCS(=O)(=O)c1ccc(Oc2ccc(Cl)cc2)cc1 | 117 to 120

Row | SMILES | melting point [°C]
26 | Cc1ccc(-c2cn(C)cc(-c3cccc(C(F)(F)F)c3)c2=O)cc1Br | 158 to 161
27 | Cc1cc(Oc2ccc(C(=O)C=CC(=O)O)cc2)ccc1Cl | 135 to 136
28 | Cc1cc(-n2ccc(OCc3ccc(F)cc3)cc2=O)sc1C(=O)NCc1ccccc1 | 195 to 197
29 | CC(C)C(CO)(CO)[N+](=O)[O-] | 67 to 72
30 | COC(=O)COc1ccc2cc(-c3csc(Cc4c(Cl)cccc4Cl)n3)ccc2c1 | 174 to 177
31 | O=C1NCCN(NC(=O)c2ccc(O)c(O)c2)C1=O | 294
32 | OCCNc1nc(NCc2ccccc2)c2ncc(Cl)cc2n1 | 106 to 107
33 | CN(CCOc1ccc(CC(Sc2ccccc2)C(=O)O)cc1)c1nc2ccccc2o1 (centres undefined) | 144 to 147
34 | ClC(=NNc1ccccc1)c1c(Cl)cccc1Cl | 95.5 to 96.5
35 | CC(C)c1nc(-c2ccccc2)c(C(C)C)c(-c2ccc(F)cc2)c1CO | 244 to 246
36 | CCOc1ccc(-n2nc(Sc3ccc(Cl)cc3)c(C)c(C#N)c2=O)cc1 | 138 to 145
37 | CCCCc1oc2ccccc2c1C(=O)NCc1ccc2c(-c3ccc(C)cc3)c(OCC#N)ccc2c1 | 114 to 117
38 | Cc1nc(NC(=O)c2cnn3c(C(F)F)cc(-c4ccc(C(F)(F)F)cc4)nc23)sc1S(=O)(=O)N(C)CCO | 216
39 | CCOC(=O)C1=C(O)[C@H](CC2CCCCC2)NC1=O | 176 to 180
40 | CC(OC(=O)c1cc(-n2c(=O)cc(C(F)(F)F)n(C)c2=O)ccc1Cl)C1CC1 (centres undefined) | 118 to 119
41 | CCOC(=O)C1=C(/C=C/N(C)C)C(CC)(C(=O)N(CC)CC)OC1=O (centres undefined) | 105
42 | CC(C)=C[C@@H](OC(=O)C=C(C)N[C@@H](C)c1cccc2ccccc12)C(Cl)(Cl)Cl | 209 to 210
43 | CS(=O)(=O)c1ccc(-c2cccn2-c2ccc(F)c(F)c2)cc1 | 137 to 139
44 | O=C(O)CCCNC(=O)CC1=C(n2nc(-c3c(-c4ccccc4)nn4ccccc34)ccc2=O)CCCC1 | 92.5 to 93
45 | CC(=O)c1ccc(SCCCc2ccccc2)cc1 | 76 to 78
46 | CCOC(=O)Cc1c[nH]c2cc(C(F)(F)F)nn2c1=O | 290 to 293
47 | FC(F)(F)CN1CCC(CNOCc2ccccc2)CC1 | 93.8 to 95.1
48 | Cc1c(C)c(Cl)c(C(=O)c2ccccc2)c(C)c1Cl | 105 to 107
49 | Cc1nc(N2CCN(CC3CC3(F)F)C2=O)sc1-c1cc[nH]n1 (centres undefined) | 227 to 230
50 | CC(C)(C)c1cc(CCc2ccccc2NC(=O)NC2CCN(Cc3ccc(F)cc3)CC2)cc(C(C)(C)C)c1O | 174 to 175

Row | SMILES | melting point [°C]
51 | CCOC(C)(OCC)C(=O)c1c[nH]c2ncc(-c3cc(OC)c(OC)c(OC)c3)nc12 | 198 to 201
52 | COc1cc(OCCOCc2ccccc2)cc2nc(-c3ccncc3)[nH]c(=O)c12 | 228 to 230
53 | Cn1c(CC(=O)O)ccc1C(=O)c1cccs1 | 141 to 142
54 | COc1ccc(OC)c(C(=O)Nc2ccc(N3CCOCC3)cc2C(C)=O)c1 | 172 to 174
55 | COc1ccc(CN2C(=O)[C@H](NC(=O)OC(C)(C)C)[C@@H]2/C=C/C(N)=O)c(OC)c1 | 270
56 | CCOC(=O)C(=C(C)N)c1nc(N)c([N+](=O)[O-])nc1Cl | 162 to 163
57 | COc1ccc(C(=O)Nc2ccc(C(C)(C)C#N)cc2)cc1 | 169 to 171
58 | N#CN1CCNC(c2ccccc2)c2ccccc2C1 (centres undefined) | 134 to 135
59 | C=COC(=O)C1=Cc2cc(Cl)cc(C=C)c2OC1C(F)(F)F (centres undefined) | 75.9 to 77.2
60 | NC(=O)N(O)C[C@H]1C[C@@H](c2ccccc2)C1 | 100
61 | CCOC(=O)c1nc2cnn(CC)c2nc1C | 64 to 65
62 | CC(C)Cc1nc2ccc(Br)cc2c(-c2ccccc2)c1CNC(=O)OC(C)(C)C | 193 to 194
63 | CCOC(=O)C(C#N)=C1CCN(c2ccc(OC)cc2)CC1 | 87
64 | CC(O)C(CCCc1ccccc1)n1cnc(C(N)=O)c1N (centres undefined) | 132
65 | O=c1cc(C(F)(F)F)ncn1-c1c(Cl)cc(C(F)(F)F)cc1[N+](=O)[O-] | 149 to 150
66 | CCOC(=O)C(N=C(c1ccc(Cl)cc1)c1ccc(OC)cc1O)C(=O)OCC | 73 to 75
67 | CNC(=O)c1ccc(-c2ccc3nnn(Cc4ccc5ncccc5c4)c3n2)cc1 | 220 to 222
68 | COC(=O)/C=C/c1ccc(CC(C)NCC(O)c2cccc(Br)c2)cc1 (centres undefined) | 105 to 111
69 | NC(=O)CCc1ccc(CNC(=O)[C@@H](CCCNC(N)=N[N+](=O)[O-])NC(=O)C(c2ccccc2)c2ccccc2)cc1 | 139 to 140
70 | O=CNNc1ccc(NC(=O)c2cccc(N=C=S)c2)cc1 | > 290
71 | Cc1cc(C)cc(-c2c(-c3ccncc3)sc3nc(=O)cc(N)n23)c1 | 275 to 278
72 | CCCc1c(OCc2ccc(C=CC(=O)OC)cc2)ccc(C(C)=O)c1O | 121 to 125
73 | CCOC(=NC(=O)c1cccc(C)c1)N1Cc2ccccc2-c2ccccc2C1 | 102 to 105
74 | NNc1nnc(C(=O)C(F)(F)F)nc1-c1ccccc1 | 193 to 194
75 | CNc1nc(C)c(-c2ccnc(Nc3cccc(S(=O)(=O)NCCOC)c3)n2)s1 | 205 to 206

Row | SMILES | melting point [°C]
76 | CCNC(=O)Nc1c(C(O)(C(F)(F)F)C(F)(F)F)ccc2c1CCC2 | 142 to 143
77 | CC(C)(C)OC(=O)NCC#Cc1cccnc1 | 74 to 78
78 | COc1ccc(C(=O)NCCCCCCCCCNC(=O)c2ccc(OC)cc2)cc1 | 156 to 157
79 | O=C(NC=Cc1ccc(O)cc1)c1ccc(Cl)cc1 | 243 to 244
80 | CCOC(=O)C1=C(N)N=C(OCC)C(C(=O)OCC)C1c1ccc(-c2ccccc2)cc1 (centres undefined) | 145
81 | O=C(CC(Cc1ccccc1)C(=O)O)c1ccc(F)cc1 (single isomer, unassigned; (+)) | 88
82 | COC(=O)c1sc2c(c1C)c1ccccc1n2Cc1ccccc1 | 132 to 134
83 | COc1c(C)c(C)c(OC)c(CC[C@](C)(O)CO)c1C | 82 to 84
84 | CC(C)CCC(C)NC1=NS(=O)(=O)c2cc(Cl)ccc2N1 (centres undefined) | > 220
85 | CCCC(=O)c1c[nH]c2c(F)cccc2c1=O | 176 to 178
86 | CC(C#N)(CNC(=O)c1n[nH]cc1NC(=O)c1ccccn1)Cc1ccccc1 (centres undefined) | 196 to 197
87 | COc1ccc(OC)c(-c2c(C(C)C)cc(C(C)C)cc2C(C)C)c1I | 189 to 191
88 | CC(=O)Nc1ccccc1OCCCO | 78 to 80
89 | BrCc1c(Br)cccc1Br | 77 to 78
90 | CCN1C(=O)CN(C(=O)OCc2ccccc2)Cc2cc(OC)c([N+](=O)[O-])cc21 | 55 to 56
91 | CC(C)S(=O)(=O)c1cnc(Cl)c(Cl)c1 | 146
92 | CCCN(Cc1ccc(-c2ccccc2-c2nc(=O)s[nH]2)cc1)c1nc2ccccc2cc1C(=O)O | 118 to 124
93 | O=C(O)CCC1CCCC2CC(=O)NC12 (centres undefined) | 180 to 181
94 | CCOC(=O)c1ccc(Cl)c(Cl)c1 | 33 to 35
95 | CCC(CC)Nc1cc(C(=O)O)ccc1N1CCCC1=O | 178 to 180
96 | COc1ccc(Cc2cnc(NCCCCc3ncc(Br)cc3C)[nH]c2=O)cc1 | 149 to 150
97 | OCc1cn(Cc2ccc(OCc3ccccc3)cc2)nc1OCc1ccc(OCc2ccccc2)cc1 | 128 to 129
98 | NC(=O)c1ccc(C=CC(=O)N2CCc3c([nH]c4ccccc34)C2c2ccc3c(c2)OCO3)cc1 (centres undefined) | 183
99 | CN(C)CCNc1nc(Nc2cccc(NS(C)(=O)=O)c2)nc2[nH]cnc12 | 191 to 195
